These results are taken from patent US7531517B2, “Inhibitors of cancer cell, T-cell and keratinocyte proliferation” (4SC AG, priority 2005, dated 2009).

By IC50 is commonly meant the concentration that gives 50% inhibition. High values mean weaker potency in that assay, low ones greater potency in that assay.

The target of the assay is T1, human Proteasome (20S proteasome, chymotryptic activity) (Homo sapiens, UniProt P28074).
T1 construct: purchased Immatics, Tübingen
In words: chymotryptic activity of the 20S proteasome (Suc-LLVT-AMC substrate, fluorescence). The note with it: for human Proteasome IC50: given in words only. Type of assay: biochemical. How it is done: The chymotryptic activity of the 20S proteasome (Immatics, Tüibingen) was determined using a Tecan Ultra plate reader and Suc-LLVT-AMC as substrate (Bachem). In the wells of a black 96 well polypropylene plate, 2 μl of the respective inhibitor dissolved in DMSO were mixed with 50 μl substrate solution (25 mM HEPES pH 7.5 at 20° C., 0.5 mM EDTA and Suc-LLVT-AMC (in the appropriate concentration) and the reaction was initiated by adding 150 μl proteasome solution (1.3 μg/ml 20S proteasome in 25 mM HEPES pH 7.5 at 20° C., 0.5 mM EDTA, 0.033% (w/v) SDS). Substrate hydrolysis was followed by fluorescence spectroscopy (excitation wavelength: 360 nm; emission wavelength: 465 nm) for 20 min at 30° C. and initial velocities were calculated and expressed as change in relative fluorescence units (RFU) per second.

Consider `O=C1CN(/N=C/C(Cc2ccccc2)NC(=O)C(Cc2c[nH]c3ccccc23)NC(=O)C(Cc2c[nH]c3ccccc23)NC(=O)OCc2ccccc2)C(=O)N1` (stereo not drawn) [Compound 1], for which, where the note is “unit nm [sic]”, the IC50 was found to be 157 nM.
The compound `O=C1CN(/N=C/C(Cc2ccccc2)NC(=O)C(Cc2c[nH]c3ccccc23)NC(=O)C(Cc2c[nH]c3ccccc23)NC(=O)CCCCC2SCC3NC(=O)NC32)C(=O)N1` (stereo not drawn) [Compound 2] yielded an IC50 (unit cell prints nM) of 76 nM. In other words, the double-digit nanomolar range.
Under “unit nm [sic]”, `O=C1CN(/N=C/C(Cc2ccccc2)NC(=O)C(Cc2c[nH]c3ccccc23)NC(=O)C(Cc2c[nH]c3ccccc23)NC(=O)Cc2cccc(Oc3ccccc3)c2)C(=O)N1` (stereo not drawn) [Compound 3] gave an IC50 of 224 nM.
The compound `O=C1CN(/N=C/C(Cc2ccccc2)NC(=O)C(Cc2c[nH]c3ccccc23)NC(=O)C(Cc2c[nH]c3ccccc23)NC(=O)OCc2cccnc2)C(=O)N1` (stereo not drawn) [Compound 4] showed a concentration for half-maximal inhibition (IC50) (unit nm [sic]) of 61 nM.
On to `O=C1CN(N=CC(Cc2ccccc2)NC(=O)C(Cc2ccc3ccccc3c2)NC(=O)C(Cc2ccc(Br)cc2)NC(=O)OCc2ccccc2)C(=O)N1` (stereo not drawn) [Compound 5], for which the “human Proteasome IC50” value is reported as “nanomolar”.
Still for that read-out and setting: the same measure for `O=C1CN(N=CC(Cc2ccccc2)NC(=O)C(Cc2ccc3ccccc3c2)NC(=O)C(Cc2ccc(Br)cc2)NC(=O)OCc2cccnc2)C(=O)N1` (stereo not drawn) [Compound 6]: “nanomolar”; for `CC(C)(C)OC(=O)NC(Cc1ccc(Br)cc1)C(=O)NC(Cc1ccc2ccccc2c1)C(=O)NC(/C=N/N1CC(=O)NC1=O)Cc1ccccc1` (stereo not drawn) [Compound 7]: “nanomolar”.
`O=C1CN(/N=C/C(Cc2ccccc2)NC(=O)C(Cc2c[nH]c3ccccc23)NC(=O)C(Cc2c[nH]c3ccccc23)NC(=O)OCc2cnccn2)C(=O)N1` (stereo not drawn) [Compound 8]: where the note is “unit nm [sic]”, the IC50 is 133 nM.
With `O=C1CN(/N=C/C(Cc2ccccc2)NC(=O)C(Cc2ccc3ccccc3c2)NC(=O)C(Cc2ccc(F)cc2)NC(=O)OCc2ccccc2)C(=O)N1` (stereo not drawn) [Compound 9], the “human Proteasome IC50” value is “nanomolar”.
For the setting “unit μm [sic]”, `O=C1CN(/N=C\C(Cc2ccccc2)NC(=O)C2C=Cc3cc(Cl)ccc3O2)C(=O)N1` (stereo not drawn) [Compound 11] showed an IC50 of 3540 nM.
Same read-out and setting: the same measure for `O=C(/C=C/c1ccccc1)NC(/C=N\N1CC(=O)NC1=O)Cc1ccccc1` (stereo not drawn) [Compound 12]: 2210 nM; for `COc1cc(C(=O)NC(/C=N/N2CC(=O)NC2=O)Cc2ccccc2)nc(OC)n1` (stereo not drawn) [Compound 14]: 2960 nM.
